Test results reported in ChEMBL document CHEMBL1140744, “Binding of serotonin and N1-benzenesulfonyltryptamine-related analogs at human 5-HT6 serotonin receptors: receptor modeling studies” (J Med Chem, 2008).
pKi: −log10 of the molar value.

Target: 5-hydroxytryptamine receptor 6 (Homo sapiens, UniProt P50406)
Experiment: Displacement of [3H]LSD from human 5HT6 receptor expressed in HEK293 cells
Format: cell-based

Chain of 5-hydroxytryptamine receptor 6 (P50406 whole entry): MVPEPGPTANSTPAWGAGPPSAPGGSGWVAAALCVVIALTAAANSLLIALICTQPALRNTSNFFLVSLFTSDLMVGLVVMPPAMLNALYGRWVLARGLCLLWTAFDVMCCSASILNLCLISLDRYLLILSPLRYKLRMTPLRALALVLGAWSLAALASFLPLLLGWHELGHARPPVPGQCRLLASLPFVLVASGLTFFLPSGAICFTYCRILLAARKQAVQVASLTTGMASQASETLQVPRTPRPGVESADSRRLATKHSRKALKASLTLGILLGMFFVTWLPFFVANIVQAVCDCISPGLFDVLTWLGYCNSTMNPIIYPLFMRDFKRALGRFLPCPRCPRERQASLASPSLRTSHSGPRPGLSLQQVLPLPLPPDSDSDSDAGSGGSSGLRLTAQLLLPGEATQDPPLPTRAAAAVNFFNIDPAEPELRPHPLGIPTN

Row | Structure (SMILES) | pKi
1 | CN(C)[C@H]1CCc2c(cccc2NS(=O)(=O)c2ccccc2)C1 | 7.05
2 | CN(C)CCc1cn(Sc2ccccc2)c2ccccc12 | 7.05
3 | CN(C)[C@@H]1CCc2c(cccc2NS(=O)(=O)c2ccccc2)C1 | 7.31
4 | CCc1[nH]c2ccc(OC)cc2c1C[C@@H]1CCCN1C | 6.66
5 | CCc1[nH]c2ccc(OC)cc2c1C[C@H]1CCCN1C | 8.74
